Series [1] in a line: Stability of the isolated compound (1H NMR). Format: physicochemical. Particulars: for degradation on storage: after 1 week at room temperature, repurified compound; for degradation on drying (1H NMR): dried at 60° C. under reduced pressure for 18 hours. Here is the method:
The final compound was dried at 60° C. under reduced pressure for 18 hours. […] The degraded compound was adsorbed on silica gel and purified by flash chromatography [Biotage®, dichloromethane/methanol 100/0→98/2 (15CV), 98/2 (4CV)] affording compound 3 as a light yellow liquid (0.59 g, yield=33%).
The final compound was dried at 60° C. under reduced pressure for 18 hours. […] The degraded compound was adsorbed on silica gel and purified by flash chromatography [Biotage®, dichloromethane/methanol 100/0→98/2 (12CV), 98/2 (6CV)] affording compound 3 as a white solid (0.90 g, yield=70%).

For series [2], the system named is methanogenesis in rumen liquor. The series is described as follows: In vitro test for methane production (modified Hohenheim Forage value Test). Conditions: 8 h, 39° C., average of two experiments, vs control. Here is the method: A modified version of the “Hohenheim Forage value Test (HFT)” was used for testing the effect of specific compounds on the rumen functions mimicked by this in-vitro system.
Feed is given into a syringe with a composition of rumen liquor and an appropriate mixture of buffers. The solution is incubated at 39° C. After 8 hours the quantity (and composition) of methane produced is measured and put into a formula for conversion.
• 6.2 g potassium dihydrogen phosphate (KH2PO4) • 0.6 g magnesium sulfate heptahydrate (MgSO4*7H2O) • 9 ml concentrated phosphoric acid (1 mol/l) • dissolved in distilled water to 1 l (pH about 1.6) Buffer Solution: • 35.0 g sodium hydrogen carbonate (NaHCO3) • 4.0 g ammonium hydrogen carbonate ((NH4)HCO3) • dissolved in distilled water to 1 l Trace Element Solution: • 13.2 g calcium chloride dihydrate (CaCl2*2H2O) • 10.0 g manganese(II) chloride tetrahydrate (MnCl2*4H2O) • 1.0 g cobalt(II) chloride hexahydrate (CoCl2*6H2O) • 8.0 g iron(III) chloride (FeCl3*6H2O) • dissolved in distilled water to 100 ml Sodium Salt Solution: • 100 mg sodium salt • dissolved in distilled water to 100 ml Reduction Solution: • first 3 ml sodium hydroxide (c=1 mol/l), then 427.5 mg sodium sulfide hydrate (Na2S*H2O) are added to 71.25 ml H2O • solution must be prepared shortly before it is added to the medium solution Procedure: Sample Weighing: • The feed stuff is sieved to 1 mm—usually TMR (44% concentrate, 6% hay, 37% maize silage and 13% grass silage)—and weighed exactly into 64 syringes. 4 of these syringes are the substrate controls, which display the gas production without the effect of the tested compounds. 4 other syringes are positive control, in which bromoethane sulfonate has been added to 0.1 mM. When needed, 4 syringes contain a carrier control (if the test compounds need a carrier). The remaining syringes contain the test substances, by groups of 4 syringes. Preparation of the Medium Solution:
The components are mixed in a Woulff bottle in following order: • 711 ml water • 0.18 ml trace element solution • 355.5 ml buffer solution • 355.5 ml mass element solution • The completed solution is warmed up to 39° C. followed by the addition of 1.83 ml sodium salt solution and the addition of reduction solution at 36° C. The rumen liquor is added, when the indicator turns colourless. Extraction of the Rumen Liquor: • 750 ml of rumen liquor are added to approximately 1,400 ml of medium solution under continued agitation and CO2-gassing. Filling the Syringes, Incubation and Determining Gas Volumes and VFA Values: • The diluted rumen fluid (24 ml) is added to the glass syringe. The syringes are then incubated for 8 hours at 39° C. under gentle agitation. After 8 hours, the volume of gas produced is measured, and the percentage of methane in the gas phase is determined by gas chromatography. Results
The food fermented was artificial TMR (44% concentrate, 6% hay, 37% maize silage and 13% grass silage). The compounds produced as described in examples 3 to 20 were added to the fermentation syringes to a concentration of 2 to 0.01% of dry matter (DM).

Take `CNC(=O)CCCCO[N+](=O)[O-]` [Example 18, 5-Nitrooxy-pentanoic acid methylamide]: in series [1], the degradation on storage result is recorded as “No further degradation was observed” and the “degradation on drying (1H NMR)” value was “Degradation was observed”.
For `CCOC(=O)C(C)O[N+](=O)[O-]` (stereo not shown), the “effect on methanogenesis (%)” value in series [2] (0.05% DM) is recorded as −2%; in series [2] (0.5% DM) it was −33%; in series [2] (2% DM), −100%.
In the case of `CCOC(=O)CCCCCCCO[N+](=O)[O-]`, the “effect on methanogenesis (%)” value in series [2] (0.01% DM) is −12%; in series [2] (0.05% DM), −96%; in series [2] (0.1% DM), −99%.
On to `NC(=O)CCCCO[N+](=O)[O-]` [drawing 36], for which the “effect on methanogenesis (%)” value is given as −2% in series [2] (0.01% DM), −99% in series [2] (0.1% DM) and −98% in series [2] (1% DM).
On to `CCOC(=O)CC(C)O[N+](=O)[O-]` (stereo not shown), for which the “effect on methanogenesis (%)” value is recorded as −17% in series [2] (0.05% DM), −100% in series [2] (0.5% DM) and −100% in series [2] (2% DM).
For the compound `COC(=O)CCO[N+](=O)[O-]`, the “effect on methanogenesis (%)” value was −12% in series [2] (0.01% DM), −64% in series [2] (0.05% DM), −100% in series [2] (0.5% DM) and −100% in series [2] (2% DM).
As to `O=C(O)CCCCCCCCCCO[N+](=O)[O-]`, the figures for the “effect on methanogenesis (%)” value in series [2] (0.01% DM), in series [2] (0.05% DM) and in series [2] (0.1% DM) were −13%, −52% and −99%, respectively.
`CCOC(=O)C1CCC(O[N+](=O)[O-])CC1` (stereo not shown): the “effect on methanogenesis (%)” value in series [2] (0.05% DM) is recorded as −2%; in series [2] (0.1% DM) it was −88%; in series [2] (1% DM), −98%.
As for `CCOC(=O)CCCCCO[N+](=O)[O-]`, the “effect on methanogenesis (%)” value is −3% in series [2] (0.01% DM), −78% in series [2] (0.05% DM) and −100% in series [2] (0.1% DM).
`CCOC(=O)CCO[N+](=O)[O-]` [drawing 19]: the “effect on methanogenesis (%)” value in series [2] (0.05% DM) is −18%; in series [2] (0.1% DM), −63%; in series [2] (0.25% DM) it was −100%; in series [2] (0.5% DM) it was −100%; in series [2] (1% DM), −100%; in series [2] (2% DM) it was −100%.
With `CCOC(=O)CO[N+](=O)[O-]`, the “effect on methanogenesis (%)” value in series [2] (0.05% DM) and in series [2] (0.1% DM) was −1% each time.
Consider `CNC(=O)CCCCO[N+](=O)[O-]` [drawing 37], for which the figures for the “effect on methanogenesis (%)” value in series [2] (0.01% DM), in series [2] (0.1% DM) and in series [2] (1% DM) were −2%, −100% and −98%, respectively.
As for `CCOC(=O)CCCCCCCCCCO[N+](=O)[O-]`, the results for the “effect on methanogenesis (%)” value in series [2] (0.01% DM), in series [2] (0.05% DM) and in series [2] (0.1% DM) were −8%, −48% and −99%, respectively.
Consider `NC(=O)CCCCO[N+](=O)[O-]` [Example 20, 5-Nitrooxy-pentanoic acid amide], for which, in series [1], the degradation on storage entry was “No further degradation was observed” and the “degradation on drying (1H NMR)” value is listed as “Degradation was observed”.
On to `O=[N+]([O-])[O-].[Na+]` [Na NO3, reference compound], for which the “effect on methanogenesis (%)” value in series [2] (0.5% DM) was −2%; in series [2] (2% DM), −23%.
With `CCOC(=O)CCCO[N+](=O)[O-]`, the “effect on methanogenesis (%)” value in series [2] (0.01% DM) is −6%; in series [2] (0.05% DM) it was −55%; in series [2] (0.1% DM), −82%; in series [2] (0.5% DM), −100%; in series [2] (2% DM), −100%.
Take `O=C(O)CCCO[N+](=O)[O-]`: the “effect on methanogenesis (%)” value in series [2] (2% DM) came out at 2%.
As to `O=C(O)CCCCO[N+](=O)[O-]`, the “effect on methanogenesis (%)” value in series [2] (0.01% DM) was −23%; in series [2] (0.05% DM), −100%; in series [2] (0.1% DM), −100%; in series [2] (0.5% DM), −100%; in series [2] (2% DM) it was −100%.
As for `CCOC(=O)CCCCO[N+](=O)[O-]`, the “effect on methanogenesis (%)” value in series [2] (0.01% DM) is recorded as −28%; in series [2] (0.05% DM), −87%; in series [2] (0.5% DM), −100%; in series [2] (2% DM), −100%.
For the compound `CC(C)(CO[N+](=O)[O-])C(=O)O`, the “effect on methanogenesis (%)” value in series [2] (0.5% DM) was −49%; in series [2] (2% DM) it was −100%.
Turning to `O=C(O)CCCCCCCO[N+](=O)[O-]`, the “effect on methanogenesis (%)” value in series [2] (0.01% DM) was −7%; in series [2] (0.05% DM), −76%; in series [2] (0.1% DM), −100%.
Regarding `O=C(O)CCO[N+](=O)[O-]`, the “effect on methanogenesis (%)” value in series [2] (0.01% DM) is on record as −8%; in series [2] (0.05% DM), −98%; in series [2] (0.1% DM), −100%; in series [2] (0.5% DM), −100%; in series [2] (2% DM), −100%.
With `O=C(O)CCCCCO[N+](=O)[O-]`, the figures for the “effect on methanogenesis (%)” value in series [2] (0.01% DM), in series [2] (0.05% DM) and in series [2] (0.1% DM) were −10%, −99% and −100%, respectively.

(Values after patent US9365489B2, “Nitrooxy alkanoic acids and derivatives thereof in feed for reducing methane emission in ruminants, and/or to improve ruminant performance” (priority 2009, dated 2016).)
